In PubChem BioAssay (NCI) one finds GI50 and TGI data, which are given here for seven molecules.

Some test systems named below: RPMI-8226 leukemia; NCI-H23 lung; EKVX NSCLC; COLO 205 colon; MDA-MB-231 breast; DU-145 prostate; HCT-116 colon; MCF7 breast; OVCAR-8 ovarian; OVCAR-3 ovarian.
What all share (assay): NCI tumour cell line growth inhibition, 48 h

Several values for one entry are separate records, joined by “and”; a condition that tells them apart may be missing. Identical values can stand only once.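 Test compounds were applied to cells in 96-well plates for 48 hours at 5 doses. The concentration for 50% growth inhibition is given as GI50. TGI is the concentration that stops growth completely.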 Where only a bound is given, the exact number is not on record here.

Consider `COc1cc(CNc2oc(-c3ccccc3)c(-c3ccccc3)c2C#N)cc(CN2CCN(C)CC2)c1O`, for which the GI50 in the assay with RPMI-8226 leukemia is 2.23 µM; in the assay with NCI-H23 lung, 1.86 µM; in the assay with EKVX NSCLC, 1.81 µM; in the assay with COLO 205 colon, 1980 nM; in the assay on MDA-MB-231 breast it was 2010 nM; in the assay with DU-145 prostate, 1.99 µM. The GI50 in the assay with HCT-116 colon is 1550 nM; in the assay with MCF7 breast, 1460 nM; in the assay on OVCAR-8 ovarian, 2.56 µM; with OVCAR-3 ovarian it was 1.76 µM. Further, the TGI with RPMI-8226 leukemia was found to be 6.33 µM; in the assay with NCI-H23 lung it was 3.79 µM; in the assay with EKVX NSCLC it was 3.59 µM; with COLO 205 colon, 4.05 µM; in the assay on MDA-MB-231 breast it was 3.93 µM; in the assay on DU-145 prostate it was 4.03 µM. The TGI in the assay with HCT-116 colon is 4.17 µM; in the assay on MCF7 breast, 3.07 µM; in the assay on OVCAR-8 ovarian, 10.1 µM; with OVCAR-3 ovarian, 3.21 µM.
With `COc1cc2nccc(Oc3ccc(NC(=O)c4cn(C(C)C)c(=O)n(-c5ccc(F)cc5)c4=O)cc3F)c2cc1OC`, the GI50 with RPMI-8226 leukemia is over 100 µM; in the assay with NCI-H23 lung, over 100 µM; in the assay on EKVX NSCLC it was over 30.1 µM; with COLO 205 colon it was over 100000 nM; in the assay on MDA-MB-231 breast, 2610 nM; in the assay with DU-145 prostate, over 100 µM. Besides, the GI50 in the assay on HCT-116 colon was 5400 nM; in the assay on MCF7 breast it was over 100000 nM; in the assay with OVCAR-8 ovarian, over 48.4 µM; with OVCAR-3 ovarian, over 41.4 µM. In addition, the TGI with RPMI-8226 leukemia is over 100 µM; with NCI-H23 lung, over 100 µM; in the assay with EKVX NSCLC, over 100 µM; in the assay with COLO 205 colon, over 100 µM; in the assay with MDA-MB-231 breast, 39.5 µM; in the assay on DU-145 prostate it was over 100 µM. Also, the TGI with HCT-116 colon, with MCF7 breast, in the assay on OVCAR-8 ovarian and with OVCAR-3 ovarian was over 100 µM in each case.
For the molecule `C/C=C(\C)C(=O)OC1/C=C(\C)CC/C=C(\C)CC2OC(=O)C(C)(OC(C)=O)C12` (centres undefined), the TGI in the assay on RPMI-8226 leukemia, with NCI-H23 lung, in the assay with EKVX NSCLC, with COLO 205 colon, in the assay with MDA-MB-231 breast and with DU-145 prostate was over 100 µM each time. Moreover, the TGI in the assay with HCT-116 colon, in the assay with MCF7 breast, in the assay on OVCAR-8 ovarian and in the assay with OVCAR-3 ovarian was over 100 µM throughout.
Regarding `CCC1=C(CC2NCCc3ccccc32)CC2c3cc(OC)c(OC)cc3CCN2C1` (centres undefined), the GI50 in the assay with RPMI-8226 leukemia was 4.17 µM; with NCI-H23 lung, 5.2 µM; in the assay with EKVX NSCLC it was 4.81 µM; with COLO 205 colon, 1810 nM and 199 nM; with MDA-MB-231 breast, 3400 nM; with DU-145 prostate it was 3.24 µM. The GI50 in the assay on HCT-116 colon is 2860 nM; with MCF7 breast, 2950 nM; in the assay with OVCAR-8 ovarian, 3.93 µM; in the assay with OVCAR-3 ovarian, 3.61 µM. Besides, the TGI in the assay with RPMI-8226 leukemia was 15.9 µM and 3.12 µM; with NCI-H23 lung, 35.9 µM and 13.1 µM; in the assay on COLO 205 colon it was 4.13 µM and 0.547 µM; in the assay on MDA-MB-231 breast, 14.4 µM and 1.75 µM; in the assay with DU-145 prostate it was 12.7 µM and 2.59 µM; with HCT-116 colon, 11.6 µM and 2.94 µM. Further, the TGI in the assay on MCF7 breast was 10.6 µM and 2.3 µM; in the assay with OVCAR-8 ovarian, 26.5 µM and 19.2 µM; with OVCAR-3 ovarian, 19 µM and 11.3 µM.
In the case of `C=C1C(=O)O[C@H]2C[C@@H]1C(=O)CC(C)CCCC(C)=CCC[C@@]2(C)O` (some centres undefined), the TGI with RPMI-8226 leukemia, with NCI-H23 lung, in the assay on EKVX NSCLC, with COLO 205 colon, in the assay on MDA-MB-231 breast and in the assay with DU-145 prostate was over 25 µM in each case. The TGI in the assay with HCT-116 colon, in the assay with MCF7 breast, in the assay with OVCAR-8 ovarian and with OVCAR-3 ovarian was over 25 µM each time.
In the case of `N#Cc1cc(S(=O)(=O)Nc2nc3ccccc3o2)c(SCc2ccccc2)cc1Cl`, the GI50 was 30.9 µM in the assay on RPMI-8226 leukemia; 26.1 µM with NCI-H23 lung; 18.4 µM in the assay with EKVX NSCLC; 30600 nM in the assay with COLO 205 colon; 24800 nM in the assay with MDA-MB-231 breast; 21 µM with DU-145 prostate. For the same molecule, the GI50 in the assay on HCT-116 colon was 17800 nM; in the assay on MCF7 breast, 39800 nM; in the assay with OVCAR-8 ovarian, 5.1 µM; in the assay with OVCAR-3 ovarian it was 24.2 µM. In addition, the TGI in the assay with RPMI-8226 leukemia was over 100 µM; with NCI-H23 lung it was 54.3 µM; in the assay with EKVX NSCLC it was 42.7 µM; in the assay on COLO 205 colon it was over 100 µM; with MDA-MB-231 breast, 62.9 µM; in the assay on DU-145 prostate, 46.7 µM. Further, the TGI in the assay with HCT-116 colon is 38.6 µM; in the assay with MCF7 breast it was over 100 µM; in the assay with OVCAR-8 ovarian, 63.2 µM; with OVCAR-3 ovarian it was 52.3 µM.
Consider `C=C(C)[C@@H]1CC[C@]2(C(=O)NS(=O)(=O)c3ccccc3)CC[C@]3(C)[C@H](CC[C@@H]4[C@@]5(C)CC[C@H](OC(=O)NS(=O)(=O)c6ccccc6)C(C)(C)[C@@H]5CC[C@]43C)[C@@H]12`, for which the GI50 in the assay with RPMI-8226 leukemia was 1.37 µM; with NCI-H23 lung, 2.41 µM; with EKVX NSCLC, 3.17 µM; in the assay with COLO 205 colon, 1540 nM; in the assay on MDA-MB-231 breast it was 2920 nM; in the assay on DU-145 prostate, 3.18 µM. The GI50 in the assay on HCT-116 colon was 1470 nM; with MCF7 breast, 2930 nM; in the assay on OVCAR-8 ovarian it was 2.89 µM; with OVCAR-3 ovarian, 1.85 µM. Besides, the TGI was determined as 6.18 µM in the assay on RPMI-8226 leukemia; 8.51 µM in the assay with NCI-H23 lung; 21.9 µM in the assay on EKVX NSCLC; 3.08 µM in the assay with COLO 205 colon; 12.1 µM in the assay with MDA-MB-231 breast; 13.8 µM in the assay on DU-145 prostate. The TGI was 3.56 µM in the assay on HCT-116 colon, 10.8 µM in the assay on MCF7 breast, 19.1 µM in the assay with OVCAR-8 ovarian and 3.62 µM in the assay on OVCAR-3 ovarian.
